Paper PMC7774954, “Interactomic affinity profiling by holdup assay: Acetylation and distal residues impact the PDZome-binding specificity of PTEN phosphatase” (PLoS ONE, 2020)

How the values were obtained:
CNKSR3-1 = experiment: Holdup assay, CNKSR3-1; type: binding, human
PTPN13 PDZ 2 = biological target: T1, PTPN13 PDZ 2 (Homo sapiens, UniProt Q12923); experiment: Holdup assay, PTPN13-2; type: binding; conditions: PDZ domain PTPN13-2
T1 construct: made in house; host or cells: E. coli
T1 sequence (Q12923 1368-1452 limits assumed): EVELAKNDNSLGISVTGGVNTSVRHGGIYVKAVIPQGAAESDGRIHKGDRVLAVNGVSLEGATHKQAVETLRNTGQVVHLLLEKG
Method: (§1) The holdup assay was performed on a Tecan freedom Evo200 robot with 384-well plates in singlicate for the three 11-mer PTEN variants and the 13-mer PTEN peptide as described in [31, 32]. Briefly, prior to interaction assay, 2.5 μL of streptavidin resin was saturated in each well with 20 μL of biotinylated PBM peptides (42 μM) and then washed twice with an excess of free biotin, while the reference resin was incubated only with biotin. Right before the holdup experiment, the PDZ library was spiked with an internal standard of lysozyme. Then, the biotin- or PBM-saturated resin was incubated, each in a distinct well of a 384-well plate, with complete cell lysates diluted so that the concentration of the tag-PDZ present in the crude extract is adjusted at 4 μM. After a sufficient time to reach complex equilibrium (15 min.), a fast and mild filtration step is performed and the tag-PDZ concentrations were measured by capillary electrophoresis instrument (LabChip GXII, PerkinElmer, Massachusets, USA). Standard markers were used to convert migration time into molecular weight on the LabChip software and inappropriate molecular weight markers were corrected or excluded.
(§2) For filtered data, the BI was extracted with the following equation (Eq 1) that estimates the depleted fraction after superimposition of the sample and reference electropherograms: BI=Iref−Ilig/Iref (1) where Iref and Ilig are the intensities of the tag-PDZ peaks measured, for each PDZ domain/PBM peptide interaction pair, in the biotin reference and the PBM electropherograms, respectively.
(§3) BIs were transformed into dissociation constants (KD) using the following formula: KD=([PDZtot]−BI·[PDZtot])·([PBMtot]−BI·[PDZtot])/BI·[PDZtot] (2) where [PDZtot] and [PBMtot] correspond to the total concentrations of the PDZ domain (usually around 4 μM) and the PBM peptide used during the assay. Since the PBMtot concentration in the resin during the holdup assay parameter may differ from one peptide to another and remains unknown, it is impossible to directly convert BI values into KD constants. We systematically determined the KD constants for a subset of PDZ/PBM pairs by competitive FP. […] For each PBM, the average peptide concentration was calculated after outlier rejection based on the absolute distances from the median as compared to three times the standard deviation (3σ rule), with never more than 2 values rejected.

MAGI2-4 = MAGI2-4 (Homo sapiens, UniProt Q86UL8); experiment: Holdup assay, MAGI2-4; type: binding
Chain of MAGI2-4 (Q86UL8 whole entry): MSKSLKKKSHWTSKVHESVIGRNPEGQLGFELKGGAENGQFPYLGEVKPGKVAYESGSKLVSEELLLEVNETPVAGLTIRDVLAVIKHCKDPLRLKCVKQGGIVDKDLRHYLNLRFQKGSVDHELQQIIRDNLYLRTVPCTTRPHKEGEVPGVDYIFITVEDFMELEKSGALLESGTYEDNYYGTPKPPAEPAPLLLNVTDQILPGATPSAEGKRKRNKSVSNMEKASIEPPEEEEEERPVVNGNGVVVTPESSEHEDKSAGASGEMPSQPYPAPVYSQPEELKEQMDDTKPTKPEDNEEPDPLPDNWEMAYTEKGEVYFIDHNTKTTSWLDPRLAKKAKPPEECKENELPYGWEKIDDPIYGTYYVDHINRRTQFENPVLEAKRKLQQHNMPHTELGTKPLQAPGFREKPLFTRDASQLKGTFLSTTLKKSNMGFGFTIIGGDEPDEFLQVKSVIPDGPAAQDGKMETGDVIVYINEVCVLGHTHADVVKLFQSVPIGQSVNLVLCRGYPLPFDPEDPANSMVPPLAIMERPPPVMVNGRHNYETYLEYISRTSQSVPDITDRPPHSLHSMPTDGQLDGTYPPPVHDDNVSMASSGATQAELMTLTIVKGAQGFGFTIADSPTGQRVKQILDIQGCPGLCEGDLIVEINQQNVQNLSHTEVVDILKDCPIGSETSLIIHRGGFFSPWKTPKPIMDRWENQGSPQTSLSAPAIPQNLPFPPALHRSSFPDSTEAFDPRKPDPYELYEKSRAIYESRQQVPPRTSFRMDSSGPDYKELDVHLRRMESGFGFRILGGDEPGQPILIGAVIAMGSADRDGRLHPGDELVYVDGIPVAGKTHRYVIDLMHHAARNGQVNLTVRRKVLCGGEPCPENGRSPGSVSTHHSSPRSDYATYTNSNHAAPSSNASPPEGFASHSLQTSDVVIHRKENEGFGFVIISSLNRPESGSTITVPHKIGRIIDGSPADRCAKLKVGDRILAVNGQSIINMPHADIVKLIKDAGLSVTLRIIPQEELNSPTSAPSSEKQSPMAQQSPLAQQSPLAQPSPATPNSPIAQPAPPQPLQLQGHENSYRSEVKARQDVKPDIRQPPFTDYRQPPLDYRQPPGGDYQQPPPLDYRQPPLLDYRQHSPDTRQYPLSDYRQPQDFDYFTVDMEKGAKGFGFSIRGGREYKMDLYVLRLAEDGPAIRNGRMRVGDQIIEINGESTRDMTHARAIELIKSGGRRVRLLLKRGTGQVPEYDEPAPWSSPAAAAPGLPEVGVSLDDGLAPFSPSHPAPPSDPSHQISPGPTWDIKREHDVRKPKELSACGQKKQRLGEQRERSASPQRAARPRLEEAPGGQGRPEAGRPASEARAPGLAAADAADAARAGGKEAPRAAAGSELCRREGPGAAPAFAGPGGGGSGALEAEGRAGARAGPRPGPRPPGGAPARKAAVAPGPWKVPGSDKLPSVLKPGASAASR

LRRC7-1 = LRRC7-1 (Homo sapiens, UniProt Q96NW7); experiment: Holdup assay, LRRC7-1; type: binding
Chain of LRRC7-1 (Q96NW7 with tags, fused parts or gaps): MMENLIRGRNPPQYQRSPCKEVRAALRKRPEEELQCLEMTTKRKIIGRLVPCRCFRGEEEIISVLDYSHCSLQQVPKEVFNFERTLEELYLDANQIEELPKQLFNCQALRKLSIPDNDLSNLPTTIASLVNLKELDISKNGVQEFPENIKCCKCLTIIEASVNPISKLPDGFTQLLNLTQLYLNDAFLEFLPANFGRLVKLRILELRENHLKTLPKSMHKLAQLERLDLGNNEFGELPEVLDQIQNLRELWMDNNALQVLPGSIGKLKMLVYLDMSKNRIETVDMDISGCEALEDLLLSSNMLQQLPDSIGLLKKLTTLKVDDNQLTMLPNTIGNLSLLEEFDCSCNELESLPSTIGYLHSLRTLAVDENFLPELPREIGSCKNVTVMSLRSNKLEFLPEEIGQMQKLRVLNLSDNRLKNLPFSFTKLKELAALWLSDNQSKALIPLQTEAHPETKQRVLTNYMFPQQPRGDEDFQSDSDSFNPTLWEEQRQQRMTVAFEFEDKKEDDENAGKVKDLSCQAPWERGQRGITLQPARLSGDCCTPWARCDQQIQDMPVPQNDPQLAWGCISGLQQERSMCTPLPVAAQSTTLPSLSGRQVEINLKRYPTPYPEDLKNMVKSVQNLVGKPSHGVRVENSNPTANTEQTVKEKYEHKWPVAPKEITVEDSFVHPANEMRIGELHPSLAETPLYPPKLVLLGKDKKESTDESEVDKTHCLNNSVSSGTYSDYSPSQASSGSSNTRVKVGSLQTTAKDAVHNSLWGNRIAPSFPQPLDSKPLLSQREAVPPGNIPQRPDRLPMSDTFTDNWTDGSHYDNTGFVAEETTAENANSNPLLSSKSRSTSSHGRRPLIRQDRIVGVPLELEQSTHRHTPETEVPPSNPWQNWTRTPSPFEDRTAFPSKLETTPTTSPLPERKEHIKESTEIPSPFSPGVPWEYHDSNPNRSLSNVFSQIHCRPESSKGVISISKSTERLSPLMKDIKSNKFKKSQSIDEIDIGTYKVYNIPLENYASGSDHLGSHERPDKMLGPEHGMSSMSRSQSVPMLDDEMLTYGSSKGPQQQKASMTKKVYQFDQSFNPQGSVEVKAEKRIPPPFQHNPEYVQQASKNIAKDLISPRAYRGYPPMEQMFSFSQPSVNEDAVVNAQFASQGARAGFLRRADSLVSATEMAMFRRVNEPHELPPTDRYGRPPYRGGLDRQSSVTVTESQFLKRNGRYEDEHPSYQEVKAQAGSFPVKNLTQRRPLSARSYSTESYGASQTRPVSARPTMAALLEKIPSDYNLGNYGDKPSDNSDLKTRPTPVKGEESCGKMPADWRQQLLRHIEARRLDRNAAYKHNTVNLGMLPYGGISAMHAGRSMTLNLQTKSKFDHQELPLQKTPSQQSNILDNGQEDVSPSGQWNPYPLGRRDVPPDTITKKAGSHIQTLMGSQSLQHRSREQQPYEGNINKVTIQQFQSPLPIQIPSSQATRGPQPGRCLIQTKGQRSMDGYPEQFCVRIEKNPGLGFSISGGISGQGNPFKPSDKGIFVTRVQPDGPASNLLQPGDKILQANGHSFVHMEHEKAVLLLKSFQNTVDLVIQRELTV

DLG5-3 = experiment: Holdup assay, DLG5-3; type: binding, human
LAP2-1 = LAP2-1 (Homo sapiens, UniProt Q96RT1); experiment: Holdup assay, LAP2-1; type: binding
Chain of LAP2-1 (Q96RT1 1321-1410): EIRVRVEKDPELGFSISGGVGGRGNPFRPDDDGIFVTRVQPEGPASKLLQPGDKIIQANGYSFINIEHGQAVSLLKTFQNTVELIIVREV

MPDZ-11 = MPDZ-11 (Homo sapiens, UniProt O75970); experiment: Holdup assay, MPDZ-11; type: binding
HTRA2-1 = experiment: Holdup assay, HTRA2-1; type: binding, human
INADL-8 = INADL-8 (Homo sapiens, UniProt Q8NI35); experiment: Holdup assay, INADL-8; type: binding
Chain of INADL-8 (Q8NI35 whole entry): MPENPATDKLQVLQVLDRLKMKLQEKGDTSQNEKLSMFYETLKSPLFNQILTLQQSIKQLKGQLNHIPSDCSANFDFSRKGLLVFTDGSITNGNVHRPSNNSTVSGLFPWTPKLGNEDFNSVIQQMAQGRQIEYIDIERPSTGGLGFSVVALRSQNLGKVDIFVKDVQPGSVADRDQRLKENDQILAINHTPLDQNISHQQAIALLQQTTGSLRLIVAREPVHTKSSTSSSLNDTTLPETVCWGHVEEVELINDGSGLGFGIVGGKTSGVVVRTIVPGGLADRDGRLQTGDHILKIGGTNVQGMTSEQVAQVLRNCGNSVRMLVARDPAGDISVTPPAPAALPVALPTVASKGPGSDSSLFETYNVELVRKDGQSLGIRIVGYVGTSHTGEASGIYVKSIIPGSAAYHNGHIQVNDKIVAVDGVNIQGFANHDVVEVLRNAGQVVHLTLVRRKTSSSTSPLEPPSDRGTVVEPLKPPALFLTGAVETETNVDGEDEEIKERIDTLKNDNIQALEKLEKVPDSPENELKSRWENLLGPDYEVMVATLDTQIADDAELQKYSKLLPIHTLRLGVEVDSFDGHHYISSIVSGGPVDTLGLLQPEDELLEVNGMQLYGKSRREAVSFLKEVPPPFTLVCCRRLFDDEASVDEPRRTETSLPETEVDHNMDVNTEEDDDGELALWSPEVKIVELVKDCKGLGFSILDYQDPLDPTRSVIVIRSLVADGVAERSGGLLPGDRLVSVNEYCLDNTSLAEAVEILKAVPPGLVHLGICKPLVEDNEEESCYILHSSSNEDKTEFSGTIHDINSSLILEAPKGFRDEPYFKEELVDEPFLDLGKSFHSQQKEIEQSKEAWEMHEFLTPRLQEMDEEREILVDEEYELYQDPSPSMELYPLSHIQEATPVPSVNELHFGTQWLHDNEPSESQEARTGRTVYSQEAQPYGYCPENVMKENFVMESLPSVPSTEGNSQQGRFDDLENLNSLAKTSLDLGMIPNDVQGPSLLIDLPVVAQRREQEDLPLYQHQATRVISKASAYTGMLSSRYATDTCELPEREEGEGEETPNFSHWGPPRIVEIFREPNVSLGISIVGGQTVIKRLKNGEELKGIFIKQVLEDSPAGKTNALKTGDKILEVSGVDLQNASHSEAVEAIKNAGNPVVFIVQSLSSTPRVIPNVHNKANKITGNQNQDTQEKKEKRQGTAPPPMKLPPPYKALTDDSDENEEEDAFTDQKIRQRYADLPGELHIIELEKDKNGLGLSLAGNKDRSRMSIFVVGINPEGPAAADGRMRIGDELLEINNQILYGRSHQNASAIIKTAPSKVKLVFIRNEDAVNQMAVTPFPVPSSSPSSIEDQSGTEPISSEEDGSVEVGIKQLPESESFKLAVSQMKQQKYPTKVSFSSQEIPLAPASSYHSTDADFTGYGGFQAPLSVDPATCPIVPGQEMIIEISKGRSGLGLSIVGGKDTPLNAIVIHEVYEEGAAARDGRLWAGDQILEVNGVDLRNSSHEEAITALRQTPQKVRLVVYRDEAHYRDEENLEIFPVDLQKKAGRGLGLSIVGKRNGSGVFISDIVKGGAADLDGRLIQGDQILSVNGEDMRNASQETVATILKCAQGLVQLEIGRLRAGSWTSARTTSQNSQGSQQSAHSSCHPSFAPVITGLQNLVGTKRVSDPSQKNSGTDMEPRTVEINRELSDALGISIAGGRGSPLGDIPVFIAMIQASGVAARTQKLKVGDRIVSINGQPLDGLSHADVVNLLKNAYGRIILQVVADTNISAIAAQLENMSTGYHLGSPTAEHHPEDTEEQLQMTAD

DLG5-4 = experiment: Holdup assay, DLG5-4; type: binding, human
LNX1-3 = experiment: Holdup assay, LNX1-3; type: binding, human
CARD11-1 = experiment: Holdup assay, CARD11-1; type: binding, human
ARHGAP21-1 = experiment: Holdup assay, ARHGAP21-1; type: binding, human
SCRIB-3 = biological target: T2, SCRIB-3 (Homo sapiens, UniProt Q14160); experiment: Holdup assay, SCRIB-3; type: binding
T2 construct: Representative holdup data recorded for three PDZ domains (MAST2-1, HTRA1-1, SCRIB-3); made in house; host or cells: E. coli
T2 sequence (Q14160 1004-1093 limits assumed): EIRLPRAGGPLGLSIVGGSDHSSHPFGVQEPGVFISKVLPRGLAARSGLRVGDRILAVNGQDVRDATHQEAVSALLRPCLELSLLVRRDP
Method: as §1, §2

MAST2 PDZ 1 = biological target: T3, MAST2 PDZ 1 (Homo sapiens, UniProt Q6P0Q8); experiment: Holdup assay, MAST2-1; type: binding
T3 construct: made in house; host or cells: E. coli
T3 sequence (Q6P0Q8 1104-1192 limits assumed): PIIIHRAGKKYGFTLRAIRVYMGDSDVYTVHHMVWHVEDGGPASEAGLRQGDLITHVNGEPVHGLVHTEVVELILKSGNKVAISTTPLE
Method: as §1, §2, §3

ARHGAP23-1 = experiment: Holdup assay, ARHGAP23-1; type: binding, human
HTRA4-1 = experiment: Holdup assay, HTRA4-1; type: binding, human
LNX2-2 = biological target: T4, LNX2-2 (Homo sapiens, UniProt Q8N448); experiment: Holdup assay, LNX2-2; type: binding
T4 sequence (Q8N448 339-422): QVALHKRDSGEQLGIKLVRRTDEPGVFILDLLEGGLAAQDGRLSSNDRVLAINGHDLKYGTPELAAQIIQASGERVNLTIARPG

DLG4 PDZ 3 = biological target: T5, DLG4 PDZ 3 (Homo sapiens, UniProt P78352); experiment: Holdup assay, DLG4-3; type: binding
T5 construct: made in house; host or cells: E. coli
T5 sequence (P78352 313-393 limits assumed): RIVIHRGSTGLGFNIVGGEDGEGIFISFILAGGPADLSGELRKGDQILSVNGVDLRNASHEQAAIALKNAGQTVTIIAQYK
Method: as §1, §2, §3

LNX2-4 = experiment: Holdup assay, LNX2-4; type: binding, human
HTRA3-1 = experiment: Holdup assay, HTRA3-1; type: binding, human
MAST1 PDZ 1 = biological target: T6, MAST1 PDZ 1 (Homo sapiens, UniProt Q9Y2H9); experiment: Holdup assay, MAST1-1; type: binding
T6 construct: made in house; host or cells: E. coli
T6 sequence (Q9Y2H9 967-1055 limits assumed): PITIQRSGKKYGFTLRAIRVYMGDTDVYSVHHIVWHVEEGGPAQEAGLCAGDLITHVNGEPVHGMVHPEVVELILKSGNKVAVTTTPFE
Method: as §1, §2, §3

## CC[C@H](C)[C@H](NC(=O)[C@H](CCC(N)=O)NC(=O)[C@@H](NC(=O)[C@H](Cc1c[nH]cn1)NC(=O)[C@H](CCC(N)=O)NC(=O)[C@H](CC(=O)O)NC(=O)[C@H](CCC(=O)O)NC(=O)[C@H](CC(=O)O)NC(=O)CCC(=O)NCCCOCCOCCOCCCNC(=O)CCCC[C@@H]1SC[C@@H]2NC(=O)N[C@@H]21)[C@@H](C)O)C(=O)N[C@H](C(=O)N[C@@H](CCCCN)C(=O)N[C@H](C(=O)O)C(C)C)[C@@H](C)O [PTEN_11]
CNKSR3-1
  BI: 0.028
  LogKD: 3.519
PTPN13 PDZ 2
  BI: 0.184
MAGI2-4
  BI: 0.06
  LogKD: 3.519
LRRC7-1
  BI: 0.078
  LogKD: 3.519
DLG5-3
  BI: 0.034
  LogKD: 3.519
LAP2-1
  BI: 0.305
  Kd: 74.7 µM
MPDZ-11
  BI: 0.021
  LogKD: 3.519
HTRA2-1
  BI: 0.07
  LogKD: 3.519
INADL-8
  BI: 0.388
  Kd: 51.2 µM
DLG5-4
  BI: -0.07
  LogKD: 3.519
LNX1-3
  BI: -0.02
  LogKD: 3.519
CARD11-1
  BI: -0.016
  LogKD: 3.519
ARHGAP21-1
  BI: -0.072
  LogKD: 3.519
SCRIB-3; PDZ domain SCRIB-3
  BI: 0.058
SCRIB-3; SCRIB-3, holdup, singlicate
  BI (binding intensity): 0.02
MAST2 PDZ 1
  Kd: 12.7 µM
MAST2 PDZ 1; MAST2-1
  BI: 0.711
MAST2 PDZ 1; MAST2-1, holdup, singlicate, 0.00 no binding to 1.00 strong binding
  BI (binding intensity): 0.71
ARHGAP23-1
  BI: -0.109
  LogKD: 3.519
HTRA4-1
  BI: 0.062
  LogKD: 3.519
LNX2-2
  BI: -0.039
  LogKD: 3.519
DLG4 PDZ 3
  BI: -0.018
LNX2-4
  BI: -0.124
  LogKD: 3.519
HTRA3-1
  BI: 0.05
  LogKD: 3.519
MAST1 PDZ 1
  Kd: 38.5 µM
MAST1 PDZ 1; MAST1-1
  BI: 0.455
